# From patent publication US20250302767A1, “TREATMENT OF CANCER AND AUTOIMMUNE DISORDERS USING NANO POLYMERS OF HISTONE DEACETYLASE INHIBITORS” (University of Virginia Patent Foundation, priority 2021, published 2025)
# Like-named read-outs stand apart in the source and are kept apart here.
# Tests used:
# [1] = tested on: cancer cell lines (SUP-T1, FEPD, H9, HH, SUP-M2, NKL, TL-1, FM3-29); assay: Cell viability assay, summary across all cancer cell lines tested; type: cell-based, human
# Description: Cell Viability Assay. For cell viability, cell lines were plated at the appropriate cell densities (SUP-T1, HH, NKL and TL-1 at 100,000 cells/ml/well and H9, FEPD SUP-M2 and FM3-29 at 50,000 cells/ml/well) in a 48-well plate. […] Luminescence was normalized to untreated control, which was defined as 100% viability.
# [2] = tested on: PBMCs from healthy donors; assay: Cell viability of normal cells (CELL TITER GLO); type: cell-based, human; details: for IC50: Homo sapiens, PBMC
# [3] = tested on: acetylation of histone proteins H3 and H4 in HH cells; assay: Acetylation of histone H3 and H4 (flow cytometry, Western blot); type: cell-based, human; details: increasing doses, 30 hours
# Description: Flow Cytometry. Cells were harvested after 30 hours of treatment, washed twice with PBS, fixed with 4% paraformaldehyde solution and permeabilized with 70% methanol before incubating with the relevant antibodies: HDAC1 Polyclonal Antibody (Proteintech), Rabbit anti-Acetyl Histone H3 K9/K14, and Rabbit Anti-Acetyl Histone H4 (Millipore). After 30 minutes incubation at room temperature cells are washed twice with PBS and FITC conjugated secondary Goat anti-rabbit antibodies (Thermofisher) were added. Cells were incubated on ice for 30 minutes and then washed in PBS. After the second wash, cells were resuspended in PBS with 4% FBS and ready for signal acquisition on a flow cytometer. Apoptosis in cell lines was assessed by the presence of cleaved Poly (ADP-ribose) polymerase-1 (PARP) using a flourochrome conjugated anti-cleaved PARP antibody (BD Biosciences). After staining the cells were acquired using an Attune Flow Cytometer and the data analyzed using FloJo analysis software. The Mean Fluorescence intensity (MFI) was indicative of the level of expression of each marker.
# Western Blots. […] Antibodies were detected with the corresponding horseradish peroxidase-linked secondary antibodies. […] Signal detection and imaging was captured and analyzed using a CHEMIDOC™ System (Bio-Rad) with signal quantification. […]
# [4] = Single dose toxicity study (MTD); type: in vivo, mice; details: female, mouse, in vivo, BALB/c mice
# Description: (§1) In vivo studies. For single dose toxicity study, five to seven-week old female BALB/c mice were chosen for the MTD study. Animals were randomly assigned to dose groups based on body weight. […] Mice were divided into two cohorts for Nano-romidepsin (NanoRomi) and free romidepsin. Each cohort was divided into sub-cohorts. Each sub cohort (n=5) received a single treatment of following doses: 1, 2, 3, 5, and 8 mg/kg body weight by intreaperitoneal (IP) and intravenous (IV) route of administration. NanoRomi was diluted under sterile conditions in phosphate buffered saline (PBS). Romidepsin was prepared in DMSO and then diluted with PBS under sterile condition. […] The mice were monitored for 7 days after the last treatment. For single dose and repeated dose toxicity study, we used two endpoints: weight loss and clinical score. Clinical signs were scored by observing activity, appearance (hair coat and eyes/nose), posture, and body condition with a maximum of 3 points going to each (0, normal; 1 slight deviation from normal; 2, moderate deviation from normal, 3, severe deviation from normal). Euthanasia criteria included weight loss either >20% weight loss or reached a clinical score >6.
# BALB/c mice [5] = assay: Single dose toxicity study (MTD); type: in vivo
# Description: as §1
# BALB/c mice [6] = assay: Repeated dose toxicity study; type: in vivo
# Excerpt: FIGS. 14A and 14B. […] Depicted are the percentage of body weight changes as a percentage of starting weights with SEM (FIG. 14A; n=5 mice/group) and clinical score with SEM (FIG. 14B; n=5 mice/group).
# as §1
# [7] = tested on: H9-dtomato-luciferase tumor; assay: Efficacy study, xenograft bioluminescence imaging; type: in vivo, NOD.Cg-Prkdcscid Il2rgtm1Wjl/SzJ mice (human H9 xenografts); details: 2 mg/kg IP on days 1, 4, 8, 11; after day 17 of engraftment
# Excerpt: FIG. 15. Efficacy study using NanoRomidepsin PDLLA. […] In vivo, BLI images were acquired to determine the response after the romidepsin and NanoRomidepsin PDLLA treatment. All cohorts were imaged on days 7, 10, 14, and 17 days (arrows) after post-engraftment using Lago X Spectrum Imaging System before the administration of drugs. After acquisition of images, a mean BLI curve of human H9 xenografts was generated where the y axis represents total flux (photon/s) and x axis represents time (Days) function.
# PTCL = details: cited from earlier work; for Outcomes: ORR / Outcomes: CR / Outcomes: DOR: patients with PTCL; for response, share of patients: R/R PTCL
# [8] = single agent, pivotal trial cited per drug (romidepsin: trial (6))
structure (smiles),measurement,setting,value
"C/C=C1\NC(=O)[C@H]2CSSCC/C=C/[C@H](CC(=O)N[C@H](C(C)C)C(=O)N2)OC(=O)[C@H](C(C)C)NC1=O [Romidepsin, (1S,4S,7Z,10S,16E,21R)-7-Ethylidene-4,21-diisopropyl-2-oxa-12,13-dithia-5,8,20,23-tetrazabicyclo[8.7.6]tricos-16-ene-3,6,9,19,22-pentone]",IC50,"[1]; Homo sapiens, 60 h, read-out: Avg. IC50 across the cancer cell lines, 60 hours, 8 cancer cell lines, b235 with +/- spread",1220 pM
same,IC50,"[1]; Homo sapiens, 60 h, read-out: IC50 range across the cancer cell lines, 60 hours, 8 cancer cell lines",600 to 1900 pM
same,IC50,"[1]; read-out: Avg. IC50 across the cancer cell lines, 60 hours, 8 cancer cell lines, b235 with +/- spread",1230 pM
same,times PBMCs from healthy donors more sensitive than the cancer cells,[2]; 72 hrs PBMCs vs cancer cells,1.5 ×
same,IC50,"[2]; 24 h, read-out: IC50 in nM, PBMC Donor 1, 24 hrs",0.02 nM
same,IC50,"[2]; 24 h, read-out: IC50 in nM, PBMC Donor 2, 24 hrs",> 50 nM
same,IC50,"[2]; 24 h, read-out: IC50 in nM, PBMC Donor 3, 24 hrs",> 50 nM
same,IC50,"[2]; 48 h, read-out: IC50 in nM, PBMC Donor 1, 48 hrs",0.01 nM
same,IC50,"[2]; 48 h, read-out: IC50 in nM, PBMC Donor 2, 48 hrs",0.01 nM
same,IC50,"[2]; 48 h, read-out: IC50 in nM, PBMC Donor 3, 48 hrs",> 50 nM
same,IC50,"[2]; 72 h, read-out: IC50 in nM, PBMC Donor 1, 72 hrs",0.04 nM
same,IC50,"[2]; 72 h, read-out: IC50 in nM, PBMC Donor 2, 72 hrs",0.07 nM
same,IC50,"[2]; 72 h, read-out: IC50 in nM, PBMC Donor 3, 72 hrs",2.48 nM
same,IC50,"[2]; read-out: Avg. IC50 across the PBMCs from healthy donors, 3 donors, 72 hrs (sentence prints 'At 60 hrs' for NanoRomidepsin PDLLA)",0.8 nM
same,IC50,"[2]; read-out: IC50 range across the PBMCs from healthy donors, 3 donors, 72 hrs (sentence prints 'At 60 hrs' for NanoRomidepsin PDLLA)",0.04 to 2.5 nM
same,acetylation of H3 and H4 (flow cytometry),[3],concentration dependent increase in the acetylation of both H3 and H4
same,MTD,[4]; intraperitoneal (IP),5 mg/kg
same,MTD,"[4]; intravenous (IV), highest dose tested 8 mg/kg",> 8 mg/kg
same,clinical score,BALB/c mice [5]; after first 7 days of treatment,equivalent clinical score
same,dose at which mice reached humane endpoints,BALB/c mice [5]; intraperitoneal (IP),8 mg/kg
same,body weight change,"BALB/c mice [6]; 3 mg/kg IP on days 1, 4, 8 and 11",severe body weight loss
same,deaths during the experimental period,"BALB/c mice [6]; 2 and 3 mg/kg IP on days 1, 4, 8 and 11",1 mouse
same,tumor response (BLI) compared to the control and ghost nanoparticle group,[7],cytostatic effect
same,Outcomes: ORR,"PTCL; single agent, pivotal trial cited per drug (romidepsin: trial (6) Coiffier et al., 2014)",25%
same,Outcomes: CR,PTCL; [8],15%
same,Outcomes: DOR,PTCL; [8],28 months
same,Outcomes: CR,"PTCL; trial (7) Piekarz et al., 2011",18%
same,Outcomes: DOR,"PTCL; trial (7) Piekarz et al., 2011",8.9 months
same,Outcomes: ORR,"PTCL; trial (7) Piekarz et al., 2011",38%
same,"response, share of patients",PTCL; single agent,25%
same,"response, share of patients","PTCL; single agent, listed as romidepsin",about 25%
